Laboratory results: patent publication US10328048B2, “Cafestol for treating diabetes” (Aarhus Universitet, priority 2014, dated 2019)
“Also recorded” adds a separate entry of the source.

Assays:
INS-1E cells [1] = test: Acute insulin secretion from INS-1E cells; type: cell-based, rat; parameters: Insulin secretion, Mean: unit not given here; conditions: for Insulin secretion, Mean: 16.7 mM glucose, 60 min
Procedure: INS-1E cells were seeded onto 24 well plates before incubation experiments. At the day of the experiment the buffer was changed to a modified Krebs-Ringer-buffer and the cells were preincubated in the same buffer for 60 min. […]

INS-1E cells [2] = test: Chronic (72 hours) insulin secretion from INS-1E cells; type: cell-based, rat; parameters: unit not given here
Procedure: INS-1E cells were seeded onto 24 well plates and incubated for 72 hours in RPMI 1640 supplemented with cafestol. After 72 hours the buffer was changed to a modified Krebs Ringer buffer and the cells were incubated for 60 min at low (3.3 mM) and high (16.7 mM) glucose. Hereafter the medium was removed for later insulin analysis using a sensitive rat insulin kit from Linco.

[3] = test system: Human skeletal muscle cells; test: Acute glucose uptake in human skeletal muscle cell line; type: cell-based; conditions: 100 nM insulin, 15 minutes
Procedure: Human skeletal muscle cells were seeded in 24 wells, ([…] cells/well) containing 1 mL growth medium (Promocell, Heidelberg, Germany). Once 70-90% confluence was reached, the growth medium was replaced by 1 mL differentiation medium (Promocell, Heidelberg, Germany). This medium was changed every 2nd day for two weeks until multinucleated syncytia was visible in microscope. Cells were washed twice with PBS. 300 μL of an alternatively modified-Krebs Ringer Buffer (containing 0.1% BSA with 0.1 mM glucose, 1.5 μCi deoxy-d-glucose 2-[1,2-3H(M)] (Perkin Elmer, 2740 Skovlunde, Denmark) and 100 nM insulin was put in each well. Five types of solutions were prepared: one with […] cafestol or rosiglitazone (control), a second with a 10^−6 M cafestol, a third with a 10^−10 M cafestol, a fourth with a 10^−12 M cafestol, and a fifth with a 10^-8 M rosiglitazone. Cells were kept on ice while adding medium. After 15 minutes of incubation at 37° C., 5.0% CO2, cells were washed twice with the modified-Krebs Ringer Buffer supplemented with 0.1% BSA and 50 mM glucose, stopping the incubation and glucose uptake. Hereafter, 0.2 mL 0.1 M NaOH was added to each well for a 30 minute room temperature incubation. 0.1 mL was transferred from each well to a 24 well counting plate (Wallac Oy, Turku, Finland). After adding 0.9 mL Hisafe II scintillator (Perkin Elmer, 2740 Skovlunde, Denmark), plates were stored in the dark for 12 hours before counted using a Trilux Micro Beta Counter (Wallac Oy, Turku, Finland). “Counts per minute” is a direct measure of glucose uptake.

KKAy mice = test: 10 week dietary intervention study in diabetic KKAy mice; type: in vivo; conditions: 10 weeks; for Fasting plasma glucose compared to the control group: in food pellets
Procedure: (§1) The effects of cafestol were investigated in a 10 week dietary intervention study in a type 2 diabetic animal model. Five weeks old male KKAy mice were randomly assigned to either of three intervention groups (n=12 per group), i.e. 1) Control (no cafestol added), 2) supplementation with 0.382 mg/day of cafestol/kg mice, and 3) supplementation with 1.146 mg/day of cafestol/kg mice. The cafestol was added to food pellets daily. At the beginning of the study (week 0) fasting blood glucose, insulin and lipids (total cholesterol, LDL, HDL and triglycerides) were measured. Every 2nd week fasting blood glucose, body weight and food intake was measured. At the end of the intervention (week 10) fasting blood glucose, insulin, glucagon and lipids (total cholesterol, LDL-cholesterol, HDL-cholesterol) were measured. The pancreas was removed and treated with collagenase and subsequently, the effects on insulin secretory capacity was studied in isolated islets of Langerhans. Furthermore, gene expression levels of key regulatory genes in liver, fat and muscle tissues were measured using RT-PCR.

[4] = test system: isolated islets of Langerhans; test: Insulin secretion experiment with isolated islets of Langerhans from KKAy mice after 10 weeks intervention; type: in vivo
Procedure: as §1

INS-1E cells [5] = test: Chronic (72 hours) insulin secretion from INS-1E cells; type: cell-based, rat; conditions: low glucose level (FIG. 2)
[6] = healthy ileostomy volunteers, cited from earlier work
[7] = oral 1.5 mg/mouse, cited from earlier work

C[C@@]12CCc3occc3[C@H]1CC[C@@]13C[C@@H](CC[C@H]12)[C@@](O)(CO)C3 [Cafestol]
Insulin secretion, Mean (INS-1E cells [1]; cafestol 10^−6 M): 0.9013
Insulin secretion, Mean (INS-1E cells [1]; cafestol 10^−8 M): 0.8682
Insulin secretion, Mean (INS-1E cells [1]; cafestol 10^−10 M): 0.8715
Insulin secretion, Mean (INS-1E cells [1]; cafestol 10^−12 M): 0.8261
Insulin secretion (change vs glucose alone) (INS-1E cells [1]; high glucose, concentrations ranging from 10^−10 M to 10^−6 M): significant increase
Insulin secretion, Mean (INS-1E cells [2]; 3.3 mM glucose, 72 hours incubation with cafestol 10^−8 M): 0.7482
Insulin secretion, Mean (INS-1E cells [2]; 3.3 mM glucose, 72 hours incubation with cafestol 10^−8 M, listed as cafestol): stimulatory effect
Insulin secretion, Mean (INS-1E cells [2]; 3.3 mM glucose, 72 hours incubation with cafestol 10^−10 M): 0.5853
Insulin secretion, Mean (INS-1E cells [2]; 3.3 mM glucose, 72 hours incubation with cafestol 10^−10 M, listed as cafestol): neutral effect
Insulin secretion, Mean (INS-1E cells [2]; 3.3 mM glucose, 72 hours incubation with cafestol 10^−12 M): 0.4999
Insulin secretion, Mean (INS-1E cells [2]; 3.3 mM glucose, 72 hours incubation with cafestol 10^−12 M, listed as cafestol): significantly decreased
Insulin secretion, Mean (INS-1E cells [2]; 16.7 mM glucose, 72 hours incubation with cafestol 10^−8 M): 1.661
Insulin secretion, Mean (INS-1E cells [2]; 16.7 mM glucose, 72 hours incubation with cafestol 10^−8 M, listed as cafestol): significant increase
Insulin secretion, Mean (INS-1E cells [2]; 16.7 mM glucose, 72 hours incubation with cafestol 10^−10 M): 1.322
Insulin secretion, Mean (INS-1E cells [2]; 16.7 mM glucose, 72 hours incubation with cafestol 10^−10 M, listed as cafestol): significant increase
Insulin secretion, Mean (INS-1E cells [2]; 16.7 mM glucose, 72 hours incubation with cafestol 10^−12 M): 0.9279
Glucose uptake, Counts per minute (± in SEM) ([3]; 10^−8 M): 157.2 ± 2.318 Counts per minute
Glucose uptake, Counts per minute (± in SEM) ([3]; 10^−8 M, listed as cafestol): significantly increased
Glucose uptake, Counts per minute (± in SEM) ([3]; 10^−10 M): 151.0 ± 2.104 Counts per minute
Glucose uptake, Counts per minute (± in SEM) ([3]; 10^−12 M): 146.3 ± 1.839 Counts per minute
Fasting plasma glucagon compared to Control (KKAy mice; High cafestol group 1.146 mg/day/kg): significant decreased
Fasting plasma glucose compared to the control group (KKAy mice; high concentration 1.146 mg/day/kg): significantly decreased; also recorded: decrease fasting plasma glucose significantly
HOMA-IR compared to control group (KKAy mice; high dose of cafestol, p=0.03): significantly reduced; also recorded: significant decrease
Fasting plasma glucose compared to the control group (KKAy mice; low concentration 0.382 mg/day/kg): significantly decreased; also recorded: decrease fasting plasma glucose significantly
HOMA-IR compared to control group (KKAy mice; low dose of cafestol): tendency to be reduced
Glucose sensitivity of islets (insulin secretion) compared to Control ([4]; after 10 weeks intervention with cafestol): more glucose sensitive
Insulin stimulation at low glucose concentration ([4]; islets after 10 weeks intervention, low glucose): not present
Glucagonostatic effect (INS-1E cells [5]): significant glucagonostatic effect
Absorbed from the gastrointestinal tract ([6]; estimated from recovery in ileostomy effluent): approximately 70%
Dose recovered in urine [6]: approximately 1%
Parent compound as share of activity present in portal blood ([7]; 50 min after administration): 70%
Parent compound as share of total radioactivity present in portal blood ([7]; two minutes after dosing): 50%
